The values that follow come from BindingDB's records for PubMed 25415869 (Genentech).

Experiment [1] addresses Serine/threonine-protein kinase PAK 1 (Homo sapiens) (UniProt Q13153). The experiment in a line: Inhibition of PAK1 (unknown origin).
Experiment [2] has as its target Serine/threonine-protein kinase PAK1. The experiment in a line: Inhibition of human recombinant PAK1 using KKRNRRLSVA as substrate assessed as inhibition constant preincubated with compound for 10 mins followed by substrate addition and measured after 60 mins by FRET assay.
Experiment [3] addresses Serine/threonine-protein kinase PAK 1 (Homo sapiens) (UniProt Q13153). The experiment in a line: Inhibition of PAK1 (unknown origin) using 5-FAM-KPDRKKRYTVVGNPY-amide as substrate incubated for 120 mins by caliper off-chip mobility shift assay.
Experiment [4] shares this target. Nature of the experiment: Inhibition of PAK1 (unknown origin) in presence of ATP by Z-LYTE enzymatic kinase assay.
Experiment [5] has the same target. The experiment in a line: Inhibition of PAK1 (unknown origin) in presence of ATP.

Serine/threonine-protein kinase PAK 1 (Homo sapiens), sequence (Q13153 whole entry, looked up): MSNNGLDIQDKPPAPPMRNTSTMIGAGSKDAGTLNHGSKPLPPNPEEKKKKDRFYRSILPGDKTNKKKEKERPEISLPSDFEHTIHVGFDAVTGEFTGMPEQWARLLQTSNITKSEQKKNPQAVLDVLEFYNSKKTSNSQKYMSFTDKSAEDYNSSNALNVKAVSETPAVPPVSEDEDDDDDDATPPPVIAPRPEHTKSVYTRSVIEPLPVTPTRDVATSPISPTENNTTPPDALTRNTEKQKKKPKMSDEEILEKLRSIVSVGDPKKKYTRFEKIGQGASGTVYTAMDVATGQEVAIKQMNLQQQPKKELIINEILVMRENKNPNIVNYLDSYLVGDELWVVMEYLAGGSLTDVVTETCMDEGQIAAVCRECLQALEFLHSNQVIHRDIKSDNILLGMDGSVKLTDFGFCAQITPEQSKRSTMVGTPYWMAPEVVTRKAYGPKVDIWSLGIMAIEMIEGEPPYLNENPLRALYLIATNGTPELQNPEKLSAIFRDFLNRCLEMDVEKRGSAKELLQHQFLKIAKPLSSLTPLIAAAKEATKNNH

Turning to `CN[C@@H]1C[C@H]2O[C@@](C)([C@@H]1OC)n1c3ccccc3c3c4c(c5c6cc(O)ccc6n2c5c31)C(=O)NC4`, the IC50 (commonly the point on the concentration scale where inhibition reaches its midpoint) in experiment [1] came to 1 nM.
Take `Cc1nc2ccc(C#CC(C)(C)O)cc2n1-c1ncnc(N)n1`: the Ki (usually a dissociation constant, usually derived from enzyme kinetics or from competition with a known ligand) in experiment [2] turned out to be 15300 nM.
For `CCN1c2ccc(F)cc2N=C(N2CCN(C)CC2)c2cc(Cl)ccc21`, 340 nM corresponded to half-maximal inhibition in experiment [1] (IC50).
For the molecule `O=C(c1ccccc1Cl)c1n[nH]c2ncc(-c3cnn(C4CCNCC4)c3)cc12`, the half-maximal inhibitory concentration (IC50) in experiment [3] is 20 nM.
In experiment [1], `CN(Cc1ccc2[nH]ccc2n1)c1nccc(Nc2cc([C@H]3C[C@@H]3F)[nH]n2)n1` yielded a 50% inhibitory concentration (IC50) of 8 nM.
Still for that read-out and setting: the result for `CCn1c(=O)c(-c2ccc(-c3noc(C)n3)cc2Cl)cc2cnc(Nc3ccc(C4CCN(C)CC4)cc3)nc21` reads 4 nM; that for `CCN(Cc1ccc2[nH]cnc2c1Cl)c1nccc(Nc2cc(C(C)C)[nH]n2)n1`, 1.6 nM.
In the case of `CCn1c(=O)c(-c2ccc(Cl)cc2Cl)cc2cnc(Nc3ccc(N4CCN(C)CC4)cc3)nc21` [FRAX414], in experiment [4], the half-inhibitory concentration (IC50) worked out at 20 nM.
The same measure, in the same setting: the same measure for `CN1CCN(c2ccc(Nc3ncc4ccc(=O)n(C5CCCC5)c4n3)cc2)CC1` [Pyrido[2,3-d]pyrimidin-7-one 1]: 483 nM.
In the case of `O=C1NC(=O)c2cc(-c3ccccn3)ccc21`, the half-maximal inhibitory concentration (IC50) in experiment [5] is over 100000 nM.
